Experimental data taken from ChEMBL document CHEMBL5321200, “Discovery of the GSH responsive "Y-PROTACs" targeting ALK and CDK4/6 as a potential treatment for cancer” (Eur J Med Chem, 2023).
Active and inactive are the calls of the source. The calls are words filed in the database; no cut-off is given here.

Tests used:
[1] = molecular target: Cyclin-dependent kinase 4 (Homo sapiens) (UniProt P11802); assay: Inhibition of CDK4 (unknown origin) at 1 uM by LANCE Ultra TR-FRET assay relative to control
[2] = molecular target: T1, Protein cereblon/Cyclin-dependent kinase 4 (Homo sapiens, UniProt P11802+Q96SW2); assay: PROTAC activity at CRBN/CDK4 in human NCI-H2228 cells assessed as reduction in CDK4 protein level by Western blot analysis; type: cell-based
[3] = test system: NCI-H3122; assay: Cell cycle arrest in human NCI-H3122 cells assessed as accumulation of cells at S phase at 1.25 uM incubated for 24 hrs by propidium iodide staining based flow cytometric analysis (reference value: 29.94%); type: functional
[4] = test system: NCI-H3122; assay: Induction of apoptosis in human NCI-H3122 cells assessed as viable cells at 2.5 uM incubated for 48 hrs by Annexin V-FITC/propidium iodide staining based flow cytometric analysis (reference value: 95.66%); type: functional; settings: read-out: Activity
[5] = molecular target: T1, Protein cereblon/Cyclin-dependent kinase 4; assay: PROTAC activity at CRBN/CDK4 in human L02 cells assessed as reduction in CDK4 protein level at 1 to 20 uM incubated for 24 hrs in presence of GSH by Western blot analysis; type: cell-based; settings: dose 1-20 µM
[6] = test system: NCI-H3122; assay: Induction of apoptosis in human NCI-H3122 cells assessed as late apoptotic cells at 0.625 uM incubated for 48 hrs by Annexin V-FITC/propidium iodide staining based flow cytometric analysis (reference value: 3.06%); type: functional
[7] = Toxicity in BALB/c nude mouse xenografted with human NCI-H3122 cells assessed as effect on visceral liver morphology at 75 mg/kg, IG administered once daily for 18 days and measured after 12 hrs of last dose by H and E staining based analysis; type: organism-based; settings: in vivo, po, 444 h
[8] = test system: NCI-H1299; assay: Antiproliferative activity against human NCI-H1299 cells assessed as inhibition of cell growth pretreated with GSH followed by compound addition and incubated for 3 to 5 days by MTT assay; type: functional, cell-based
[9] = test system: NCI-H3122; assay: Induction of apoptosis in human NCI-H3122 cells assessed as necrotic cells at 1.25 uM incubated for 48 hrs by Annexin V-FITC/propidium iodide staining based flow cytometric analysis (reference value: 0.57%); type: functional
[10] = test system: NCI-H2228; assay: Antiproliferative activity against human NCI-H2228 cells assessed as inhibition of cell growth incubated for 3 to 5 days by MTT assay; type: functional, cell-based
[11] = molecular target: T2, Protein cereblon/ALK tyrosine kinase receptor/Echinoderm microtubule-associated protein-like 4 (Homo sapiens) (UniProt Q9UM73+Q9HC35+Q96SW2); assay: PROTAC activity at CRBN/EML4-ALK in human NCI-H3122 cells assessed as degradation of EML4-ALK fusion protein at 5 uM pretreated with pomalidomide for 4 hrs followed by compound addition and measured after 24 hrs by Western blot analysis; type: cell-based
[12] = test system: NCI-H3122; assay: Cell cycle arrest in human NCI-H3122 cells assessed as accumulation of cells at S phase at 0.625 uM incubated for 24 hrs by propidium iodide staining based flow cytometric analysis (reference value: 29.94%); type: functional
[13] = test system: NCI-H3122; assay: Induction of apoptosis in human NCI-H3122 cells assessed as late apoptotic cells at 0.312 uM incubated for 48 hrs by Annexin V-FITC/propidium iodide staining based flow cytometric analysis (reference value: 3.06%); type: functional
[14] = molecular target: T2, Protein cereblon/ALK tyrosine kinase receptor/Echinoderm microtubule-associated protein-like 4 (Homo sapiens); assay: PROTAC activity at CRBN/EML4-ALK in human NCI-H3122 cells assessed as downregulation of phosphorylated STAT3 level by Western blot analysis; type: cell-based
[15] = molecular target: Protein cereblon/ALK tyrosine kinase receptor (Homo sapiens) (UniProt Q9UM73+Q96SW2); assay: PROTAC activity at CRBN/ALK in human NCI-H2228 cells assessed as reduction in ALK protein level by Western blot analysis; type: cell-based
[16] = molecular target: T1, Protein cereblon/Cyclin-dependent kinase 4; assay: PROTAC activity at CRBN/CDK4 in human NCI-H3122 cells assessed as induction of CDK4 degradation at 5 uM pretreated with pomalidomide for 4 hrs followed compound addition and measured after 24 hrs by Western blot analysis; type: cell-based
[17] = molecular target: ALK tyrosine kinase receptor (Homo sapiens) (UniProt Q9UM73); assay: Inhibition of ALK (unknown origin) at 1 uM by LANCE Ultra TR-FRET assay relative to control
[18] = test system: Mus musculus; assay: In vivo PROTAC activity at CRBN/EML4-ALK in BALB/c nude mouse xenografted with human NCI-H3122 cells assessed as reduction in EML4-ALK protein expression in tumor at 75 mg/kg, IG administered once daily for 18 days and measured after 12 hrs of last dose by immunohistochemical analysis; type: functional, organism-based; settings: time 444.0 hrs
[19] = test system: NCI-H3122; assay: Induction of apoptosis in human NCI-H3122 cells assessed as late apoptotic cells at 1.25 uM incubated for 48 hrs by Annexin V-FITC/propidium iodide staining based flow cytometric analysis (reference value: 3.06%); type: functional
[20] = molecular target: Cyclin-dependent kinase 6 (Homo sapiens) (UniProt Q00534); assay: Inhibition of CDK6 (unknown origin) at 1 uM by LANCE Ultra TR-FRET assay relative to control
[21] = Toxicity in BALB/c nude mouse xenografted with human NCI-H3122 cells assessed as effect on lung function at 75 mg/kg, IG administered once daily for 18 days by H and E staining based assay; type: organism-based; settings: in vivo, po, 432 h, time 18 day
[22] = Toxicity in BALB/c nude mouse xenografted with human NCI-H3122 cells assessed as effect on spleen function at 75 mg/kg, IG administered once daily for 18 days by H and E staining based assay; type: organism-based; settings: in vivo, po, 432 h, time 18 day
[23] = test system: NCI-H3122; assay: Cell cycle arrest in human NCI-H3122 cells assessed as accumulation of cells at S phase at 0.312 uM incubated for 24 hrs by propidium iodide staining based flow cytometric analysis (reference value: 29.94%); type: functional
[24] = molecular target: T2, Protein cereblon/ALK tyrosine kinase receptor/Echinoderm microtubule-associated protein-like 4 (Homo sapiens); assay: PROTAC activity at CRBN/EML4-ALK in human NCI-H3122 cells assessed as reduction in EML4-ALK fusion protein level at 10 uM incubated for 24 hrs by Western blot analysis; type: cell-based
[25] = test system: Mus musculus; assay: In vivo PROTAC activity at CDK4 in BALB/c nude mouse xenografted with human NCI-H3122 cells assessed as reduction in CDK4 protein expression level in tumor at 75 mg/kg, IG administered once daily for 18 days and measured after 12 hrs of last dose by immunohistochemical analysis; type: functional, organism-based; settings: time 444.0 hrs
[26] = test system: NCI-H3122; assay: Antitumor activity against human NCI-H3122 cells xenografted in BALB/c nude mouse assessed as reduction in tumor volume at 75 mg/kg, IG administered once daily for 18 days and measured after 12 hrs of last dose; type: functional, organism-based; settings: time 444.0 hrs
[27] = test system: NCI-H3122; assay: Antitumor activity against human NCI-H3122 cells xenografted in BALB/c nude mouse assessed as tumor growth inhibition at 75 mg/kg, IG administered once daily for 18 days and measured after 12 hrs of last dose relative to control; type: functional; settings: NCI-H3122, po, time 444 hrs, read-out: TGI
[28] = Toxicity in BALB/c nude mouse xenografted with human NCI-H3122 cells assessed as tolerance at 25 to 75 mg/kg, IG administered once daily for 18 days; type: organism-based; settings: in vivo, po, 432 h, dose 25-75 mg/kg, time 18 day

T1 sequence (P11802 2-303 limits assumed): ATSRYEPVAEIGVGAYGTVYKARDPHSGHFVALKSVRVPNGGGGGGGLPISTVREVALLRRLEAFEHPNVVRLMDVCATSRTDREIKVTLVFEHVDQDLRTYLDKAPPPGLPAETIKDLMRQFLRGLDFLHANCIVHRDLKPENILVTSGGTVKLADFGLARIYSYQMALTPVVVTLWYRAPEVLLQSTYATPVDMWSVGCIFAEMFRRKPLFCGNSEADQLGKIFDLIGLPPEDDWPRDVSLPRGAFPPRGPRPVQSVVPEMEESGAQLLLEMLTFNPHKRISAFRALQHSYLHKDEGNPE
T1 sequence (Q96SW2 whole entry partner): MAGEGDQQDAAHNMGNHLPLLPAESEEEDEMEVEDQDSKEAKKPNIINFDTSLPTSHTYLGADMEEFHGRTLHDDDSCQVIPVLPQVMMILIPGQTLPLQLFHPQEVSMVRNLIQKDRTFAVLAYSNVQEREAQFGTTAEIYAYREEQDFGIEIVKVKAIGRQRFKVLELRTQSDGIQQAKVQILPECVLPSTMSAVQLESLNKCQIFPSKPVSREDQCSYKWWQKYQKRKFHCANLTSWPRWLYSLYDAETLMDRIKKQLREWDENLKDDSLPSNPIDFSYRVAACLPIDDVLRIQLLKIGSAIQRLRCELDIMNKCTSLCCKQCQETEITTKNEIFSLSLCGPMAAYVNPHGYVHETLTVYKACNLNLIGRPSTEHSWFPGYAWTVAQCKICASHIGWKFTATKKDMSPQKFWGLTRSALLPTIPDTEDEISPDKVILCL
T2 sequence (Q96SW2 whole entry partner, the tested form may be a part): as the sequence (Q96SW2 whole entry partner) above
T2 sequence (Q9HC35 whole entry partner, the tested form may be a part): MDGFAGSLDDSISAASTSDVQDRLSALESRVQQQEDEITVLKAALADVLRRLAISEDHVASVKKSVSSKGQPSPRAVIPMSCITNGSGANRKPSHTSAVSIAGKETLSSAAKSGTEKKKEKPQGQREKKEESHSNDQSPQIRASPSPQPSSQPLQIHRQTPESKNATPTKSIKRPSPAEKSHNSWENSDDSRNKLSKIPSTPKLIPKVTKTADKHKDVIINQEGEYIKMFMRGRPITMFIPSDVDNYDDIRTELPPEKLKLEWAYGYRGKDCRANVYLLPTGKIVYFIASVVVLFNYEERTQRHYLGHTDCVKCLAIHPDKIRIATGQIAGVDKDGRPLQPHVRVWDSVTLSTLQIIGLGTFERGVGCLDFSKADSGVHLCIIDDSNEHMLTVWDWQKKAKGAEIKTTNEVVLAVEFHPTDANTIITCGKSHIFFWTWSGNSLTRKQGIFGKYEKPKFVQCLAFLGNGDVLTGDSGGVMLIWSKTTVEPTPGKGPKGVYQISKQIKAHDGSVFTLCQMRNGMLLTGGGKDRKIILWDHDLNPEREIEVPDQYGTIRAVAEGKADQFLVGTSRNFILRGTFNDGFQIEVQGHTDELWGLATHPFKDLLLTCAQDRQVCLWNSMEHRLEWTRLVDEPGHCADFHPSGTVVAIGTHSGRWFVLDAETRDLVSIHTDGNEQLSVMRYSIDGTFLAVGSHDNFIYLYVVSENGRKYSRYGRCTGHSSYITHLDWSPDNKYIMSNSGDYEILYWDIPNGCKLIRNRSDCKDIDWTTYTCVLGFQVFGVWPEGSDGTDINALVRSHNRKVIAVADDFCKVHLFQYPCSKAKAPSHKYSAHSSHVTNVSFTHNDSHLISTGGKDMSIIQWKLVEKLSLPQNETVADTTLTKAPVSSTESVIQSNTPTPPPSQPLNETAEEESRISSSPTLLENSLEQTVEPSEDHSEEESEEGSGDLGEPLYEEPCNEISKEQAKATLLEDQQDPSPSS
T2 sequence (Q9UM73 19-1620 limits assumed): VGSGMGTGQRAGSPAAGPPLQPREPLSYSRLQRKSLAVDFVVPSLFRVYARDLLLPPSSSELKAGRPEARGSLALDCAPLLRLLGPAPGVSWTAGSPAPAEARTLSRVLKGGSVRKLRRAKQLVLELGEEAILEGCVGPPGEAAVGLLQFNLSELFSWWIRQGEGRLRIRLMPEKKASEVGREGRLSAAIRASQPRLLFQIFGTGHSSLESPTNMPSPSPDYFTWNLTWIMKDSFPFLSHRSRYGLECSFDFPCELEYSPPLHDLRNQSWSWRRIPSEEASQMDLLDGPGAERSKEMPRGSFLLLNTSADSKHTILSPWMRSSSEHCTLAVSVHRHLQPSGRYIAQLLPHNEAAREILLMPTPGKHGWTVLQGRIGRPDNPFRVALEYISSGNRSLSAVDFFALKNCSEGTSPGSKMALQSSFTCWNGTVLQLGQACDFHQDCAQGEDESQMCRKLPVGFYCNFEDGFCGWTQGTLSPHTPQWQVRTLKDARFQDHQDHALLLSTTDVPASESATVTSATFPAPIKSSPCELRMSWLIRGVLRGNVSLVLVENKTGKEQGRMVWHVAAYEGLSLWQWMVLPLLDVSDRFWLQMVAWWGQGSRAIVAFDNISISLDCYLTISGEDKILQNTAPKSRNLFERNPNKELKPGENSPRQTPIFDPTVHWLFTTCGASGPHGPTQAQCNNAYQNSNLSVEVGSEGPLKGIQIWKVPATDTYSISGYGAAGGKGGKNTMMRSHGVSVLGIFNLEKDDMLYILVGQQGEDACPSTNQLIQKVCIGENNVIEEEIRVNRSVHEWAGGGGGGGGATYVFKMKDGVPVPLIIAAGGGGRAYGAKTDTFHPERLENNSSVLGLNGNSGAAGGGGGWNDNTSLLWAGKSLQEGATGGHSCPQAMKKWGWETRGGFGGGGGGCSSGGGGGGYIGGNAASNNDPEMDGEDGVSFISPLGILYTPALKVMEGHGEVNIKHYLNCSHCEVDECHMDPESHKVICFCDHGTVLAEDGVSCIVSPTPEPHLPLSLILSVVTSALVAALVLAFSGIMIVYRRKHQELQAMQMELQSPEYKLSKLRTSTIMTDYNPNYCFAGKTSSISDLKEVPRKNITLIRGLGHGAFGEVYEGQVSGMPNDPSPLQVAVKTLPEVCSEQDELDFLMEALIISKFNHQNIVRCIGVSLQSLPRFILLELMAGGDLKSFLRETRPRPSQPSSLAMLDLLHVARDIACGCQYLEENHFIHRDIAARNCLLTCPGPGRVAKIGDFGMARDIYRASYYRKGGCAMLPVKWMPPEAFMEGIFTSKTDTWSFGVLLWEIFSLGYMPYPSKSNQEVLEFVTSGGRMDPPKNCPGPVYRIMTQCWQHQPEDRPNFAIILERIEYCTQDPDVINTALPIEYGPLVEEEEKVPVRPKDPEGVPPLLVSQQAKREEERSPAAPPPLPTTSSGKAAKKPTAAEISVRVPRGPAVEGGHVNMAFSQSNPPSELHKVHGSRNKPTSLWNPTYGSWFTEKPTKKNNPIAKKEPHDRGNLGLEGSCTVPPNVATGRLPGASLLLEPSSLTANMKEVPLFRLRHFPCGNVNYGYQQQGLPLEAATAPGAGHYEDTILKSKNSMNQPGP
Sequence of ALK tyrosine kinase receptor (Homo sapiens) (Q9UM73 19-1620 limits assumed): as above
Sequence of Cyclin-dependent kinase 6 (Homo sapiens) (Q00534 whole entry): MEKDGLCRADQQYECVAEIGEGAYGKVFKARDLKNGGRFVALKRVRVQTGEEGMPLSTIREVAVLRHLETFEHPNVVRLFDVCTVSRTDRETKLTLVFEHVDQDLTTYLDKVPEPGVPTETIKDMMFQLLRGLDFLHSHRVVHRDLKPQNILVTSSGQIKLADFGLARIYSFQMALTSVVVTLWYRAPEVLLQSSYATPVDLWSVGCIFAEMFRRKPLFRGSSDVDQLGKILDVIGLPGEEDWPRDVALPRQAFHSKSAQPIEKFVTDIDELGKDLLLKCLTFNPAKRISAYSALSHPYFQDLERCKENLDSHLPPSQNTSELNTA
Sequence of Cyclin-dependent kinase 4 (Homo sapiens) (P11802 whole entry): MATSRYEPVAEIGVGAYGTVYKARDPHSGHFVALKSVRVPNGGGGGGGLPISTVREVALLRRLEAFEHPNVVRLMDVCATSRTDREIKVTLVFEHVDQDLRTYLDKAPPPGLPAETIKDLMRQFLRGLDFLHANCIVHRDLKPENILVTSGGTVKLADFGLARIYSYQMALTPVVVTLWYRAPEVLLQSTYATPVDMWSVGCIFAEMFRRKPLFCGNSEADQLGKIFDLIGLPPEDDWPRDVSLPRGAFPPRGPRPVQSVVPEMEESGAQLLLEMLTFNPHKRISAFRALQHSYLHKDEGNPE
Sequence of Protein cereblon/ALK tyrosine kinase receptor (Homo sapiens) (Q96SW2 whole entry partner): as the sequence (Q96SW2 whole entry partner) above
Sequence of Protein cereblon/ALK tyrosine kinase receptor (Homo sapiens) (Q9UM73 19-1620 limits assumed): as the sequence (Q9UM73 19-1620 limits assumed) above

inhibition [1]: 80.2%
Activity [2]: Active
Activity [5]: inactive
IC50 [8]: 4.73 µM
IC50 [10]: 5.56 µM
Activity [11]: inactive
Activity [14]: Active
Activity [15]: Active
Activity [16]: inactive
inhibition [17]: 96.4%
inhibition [20]: 97.8%
Activity [24]: Active
SMILES: CC(=O)c1c(C)c2cnc(Nc3ccc(N4CCN(CC(=O)NCCSSCCN(CC(=O)NCCNc5cccc6c5C(=O)N(C5CCC(=O)NC5=O)C6=O)C(=O)CCCCCCC(=O)N5CCC(c6cc(OC(C)C)c(Nc7ncc(Cl)c(Nc8ccccc8S(=O)(=O)C(C)C)n7)cc6C)CC5)CC4)cn3)nc2n(C2CCCC2)c1=O (stereo not drawn)
Activity [3]: 10.58%
viability at 2.5 µM [4]: 81.8%
Activity [6]: 8.32%
Activity [7]: Non-Toxic
Activity [9]: 1.91%
Activity [12]: 14.44%
Activity [13]: 5.85%
Activity [18]: Active
Activity [19]: 10.54%
Activity [21]: Non-Toxic
Activity [22]: Non-Toxic
Activity [23]: 17.52%
Activity [25]: Active
Activity [26]: Active
inhibition in vivo at 75 mg/kg [27]: 60.5%
Activity [28]: Non-Toxic
